{"source": "patent US12667569B2", "about": "“Use of sepiapterin and metabolites thereof to treat radiation exposure” (PTC Therapeutics MP, Inc., priority 2019, dated 2026)", "key": {"C57L/J mice [1]": {"test_system": "C57L/J mice", "test": "Echocardiography: contractile reserve (isoproterenol response), myocardial performance index, IRT after irradiation", "assay_type": "in vivo", "method": "Both male and female C57L/J wild-type 6-8-week-old mice were purchased from Jackson Laboratory (Bar Harbor, ME). The mice were housed with a 12:12 h light-dark schedule and access to water and food ad libitum. The experiments were conducted under the guidelines of laboratory animals for biomedical research published by the National Institutes of Health (rev. 2011). The study protocol was approved by the Institutional Animal Care and Use Committee of Virginia Commonwealth University.\n(§1) Equal numbers of male and female mice were distributed to each group. While under ketamine/xylazine anesthesia (100 mg/kg and 10 mg/kg, respectively) mice received 5 Gy total body irradiation (TBI), immediately followed by a top-up dose of 6.5 Gy to the thorax, for a total thoracic dose of 11.5 Gy, using a Varian 21 EX LINAC (Palo Alto, CA). Twenty-four hours post-irradiation, mice were treated once daily for 6 days by oral gavage with 1 mg/kg sepiapterin or 5 mg/kg BH4 dissolved in water (FIG. 1).\nAll mice underwent transthoracic echocardiography at baseline (before irradiation (IR)), at 8, 30, 60, 90 and 180 days, under light anesthesia (30 mg/kg pentobarbital sodium). Echocardiography was performed with the Vevo770 imaging system (VisualSonics, Toronto, Ontario, Canada) and a 30-MHz probe. The heart was visualized in B-mode from parasternal short-axis and apical views. The left ventricular (LV) end-diastolic diameter (EDD), LV end-systolic diameter (ESD), LV anterior wall diastolic thickness (AWDT), and LV posterior wall diastolic thickness (PWDT), LV anterior wall systolic thickness (AWST), and LV posterior wall systolic thickness (PWST) were measured at M-mode, according to the American Society of Echocardiography recommendations. LV ejection fraction (EF), and LV mass were calculated from the measurements of wall thickness and chamber diameters. The LVEF was derived using the Teicholz formula (LVEF=[LVEDD3−LVESD3]/LVEDD3), as previously described. The transmitral LV outflow tract Doppler spectra (E, A, ET) was recorded from an apical four-chamber view, and the myocardial performance index (MPI) was calculated as the […] isovolumetric contraction time (ICT) and isovolumetric relaxation time (IRT) divided by the ejection time (ED. The investigators performing and reading the echocardiograms were blinded to the treatment allocation. A beta-adrenergic agonist, isoproterenol (Sigma Aldrich, St. Louis, MO, USA) 20 ng/mouse, was used to assess cardiac contractility in irradiated mice without SP treatment. Cardiac contractility (contractile reserve) was expressed as percentage change in LVEF measured at rest (LVEFr) and 3 min after isoproterenol injection (LVEFi) and calculated as [(LVEFi−LVEFr)/LVEFr]*100. Measurements of the contractile reserve were taken at baseline, 8, 30, 60, 90 and 180 days after IR. Echocardiogram assessment was performed by an operator blinded to treatment allocation."}, "C57L/J mice [2]": {"test_system": "C57L/J mice", "test": "Assessment of lung injury by breathing rate (MouseOx) after irradiation", "assay_type": "in vivo", "conditions": "irradiated mice, 1 mg/kg/day SP for 6 days", "method": "as §1\nThe breathing rate was measured every other week starting in week 6 using the Mouse Ox system (STARR Life Sciences Corp., Allison Park, PA). The animal was placed under ketamine/xylazine anesthesia and shaved in the area of analysis. 10 min post injection the animal was placed in a supine position with the sensor clipped to the upper thigh. The breathing rate was recorded for 3 min. The breathing rate was calculated using an algorithm in the Mouse Ox software."}, "C57L/J mice [3]": {"test_system": "C57L/J mice", "test": "Survival over 180 days post IR (Kaplan Meyer)", "assay_type": "in vivo", "conditions": "11.5 Gy total thoracic dose, 1 mg/kg/day SP for 6 days", "method": "as §1\nTo determine whether the improved cardiopulmonary function impacted overall survival the mice were followed over 180 days post IR."}, "[4]": {"test_system": "cytokines' mRNAs in lung tissue", "test": "Cytokine mRNA expression (qPCR) in lung tissue after irradiation", "assay_type": "in vivo, mice", "method": "Total RNA was isolated from the lung and heart tissue samples following the manufacturers instructions with the RNeasy Mini kit (Qiagen). The RNA concentration was evaluated by using a NanoDrop ND-1000 spectrophotometer (Thermo Scientific). RNA purity was assessed by the ratios of A260/A280 and A260/A230. RNA integrity was evaluated by the ratio of 28S/18S ribosomal RNA (rRNA) and the RNA integrity number (RIN) using an Agilent 2100 BioAnalyzer (Agilent Technologies). cDNA synthesis and genomic DNA elimination were performed by using RT2 First Strand Kit (QIAGEN). Samples were amplified using RT2 SYBR® Green qPCR Mastermix probes from QIAGEN on the QuantStudio 5 RT-PCR machine (Applied Biosystems). The following RT2 qPCR Primer Assays (QIAGEN) were used: Mouse Actin-β (NM_007393), Mouse Bmp2 (NM_007553), Mouse Ccl2 (NM_011333), Mouse Ctgf (NM_010217), Mouse IL-1β (NM_008361), Mouse IL-6 (NM_031168), Mouse IL-10 (NM_010548), Mouse IL-17α (NM_010552), Mouse Runx2 (NM_001145920), Mouse Spp1 (NM_001204201), Mouse TGF-β1 (NM_011577), Mouse Trim72 (NM_001079932)."}, "[5]": {"test_system": "cytokines' mRNAs in lung tissue", "test": "Cytokine mRNA expression (qPCR) in lung tissue after irradiation", "assay_type": "in vivo, mice", "conditions": "16 weeks after IR, mean±SD, vehicle 4.25±0.537"}}, "note": "Entries after “also recorded” stand apart in the source; their conditions may differ.", "data": [{"smiles": "C[C@H](O)C(=O)C1=Nc2c([nH]c(N)nc2=O)NC1", "note": "[SP, Sepiapterin]", "values": [{"measurement": "systolic and diastolic function response, evaluated by sex", "setting": "C57L/J mice [1]; irradiated male vs female mice, 1 mg/kg SP", "result": "no significant differences in heart function response"}, {"measurement": "mitigation of loss in contractile reserve, evaluated by sex", "setting": "C57L/J mice [1]; irradiated male vs female mice, SP 1 mg/kg", "result": "equally effective in mitigating this loss in contractile reserve"}, {"measurement": "contractile reserve (response to isoproterenol)", "setting": "C57L/J mice [1]; irradiated mice (5 Gy TBI + 6.5 Gy thorax), SP 1 mg/kg oral once daily 6 days from 24 h post-IR, up to 180 days, vs vehicle", "result": "restore the response to beta-adrenergic stimulation by isoproterenol; also recorded: enhanced contractile reserve; also recorded: blunted the drop in the contractile reserve at all the time points"}, {"measurement": "myocardial performance index (Tei index) and isovolumetric relaxation time (IRT); systolic and diastolic function", "setting": "C57L/J mice [1]; irradiated mice, SP 1 mg/kg oral once daily 6 days from 24 h post-IR, up to 180 days, vs vehicle", "result": "ameliorating the progressive increase in myocardial performance index and IRT; also recorded: improved systolic and diastolic function; also recorded: blunted the increase in the Tei index and IRT at all the time points"}, {"measurement": "time to development of lung injury", "setting": "C57L/J mice [2]; vehicle 10 weeks", "result": 14, "unit": "weeks"}, {"measurement": "lung function (breathing rate)", "setting": "C57L/J mice [2]; vs vehicle, 1 mg/kg/day", "result": "significantly reduced impairment of lung function at all points measured; also recorded: decreasing breathing frequency; also recorded: significantly improved pulmonary function at all points measured"}, {"measurement": "mice alive at 180 days", "setting": "C57L/J mice [3]; untreated 40%", "result": 71, "unit": "%"}, {"measurement": "overall survival", "setting": "C57L/J mice [3]; vs irradiated without treatment, 1 mg/kg/day", "result": "significantly delayed and overall improved survival; also recorded: increased survival"}, {"measurement": "relative expression of TGF-β1 mRNA", "setting": "[4]; 16 weeks after IR, mean±SD, vehicle 3.26±0.339", "result": "1.53±0.367"}, {"measurement": "relative expression of IL-17A mRNA", "setting": "[4]; 16 weeks after IR, mean±SD, vehicle 4.5±0.824", "result": "2.12±1.173"}, {"measurement": "relative expression of IL-6 mRNA", "setting": "[4]; 16 weeks after IR, mean±SD, vehicle 28.85±5.987", "result": "17.05±4.12"}, {"measurement": "relative expression of IL-17A mRNA", "setting": "[4]; 8 days after IR, mean±SD, vehicle 9.19±2.783", "result": "2.71±1.874"}, {"measurement": "relative expression of IL-6 mRNA", "setting": "[4]; 8 days after IR, mean±SD, vehicle 16.88±4.91", "result": "1.36±0.509"}, {"measurement": "relative expression of IL-1β mRNA", "setting": "[4]; 8 days after IR, relative to non-irradiated control, mean±SD, vehicle 2.9±0.649", "result": "1.54±0.825"}, {"measurement": "relative expression of Ccl2 mRNA", "setting": "[4]; 30 days after IR, SP vs vehicle", "result": "no significant difference between Vehicle-treated and SP-treated animal groups"}, {"measurement": "relative expression of IL-1β mRNA", "setting": "[4]; 30 days after IR, mean±SD, vehicle 3.39±0.532", "result": "1.66±0.51"}, {"measurement": "relative expression of IL-17A mRNA", "setting": "[4]; 30 days after IR, mean±SD, vehicle 5.65±2.263", "result": "1.49±0.379"}, {"measurement": "relative expression of IL-6 mRNA", "setting": "[4]; 30 days after IR, mean±SD, vehicle 9.09±0.533", "result": "4.96±0.905"}, {"measurement": "relative expression of Spp2 mRNA", "setting": "[5]", "result": "2.38±0.211"}]}]}
